Data published in publication PMC6556873, “Rapid Covalent-Probe Discovery by Electrophile-Fragment Screening” (Journal of the American Chemical Society, 2019).
Like-named read-outs stand apart in the source and are kept apart here.

Legend:
[1] = in vitro; set-up: species or system HB2, CCD841; settings: human, hek293 cells
[2] = in vitro; set-up: species or system CCD841, HEK293; settings: human, hb2 cells, read-out: HB-2 Cells Viability (%)
[3] = in vitro; set-up: species or system HB2, HEK293; settings: human, ccd841 cells
[4] = target: T1, PCAF (Homo sapiens, UniProt Q92831); set-up: Intact protein LC/MS covalent labelling, fragments in pools of five, 200 uM each, 4 °C; settings: 24 h, 4 °C, pool of five; 200 µM; covalent
T1 construct: gene KAT2B
Protocol: (§1) Incubations were performed at 200 μM for each compound and 2 μM of protein (10 μM for BSA) for 24 h at 4 °C with moderate shaking. Incubation buffers varied among proteins (PBS pH 7.4 for QSOX1 and BSA; 10 mM HEPES pH 7.5, 0.3 M NaCl, 0.5 mM TCEP for PCAF, UPS8, and NUDT7; […]; 10 mM Na2HPO4 pH 7.5 100 mM NaCl 5 mM β-mercaptoethanol for NV3CP; 20 mM Na phosphate pH 7.5 for NNMT; […]. The reaction was stopped by quenching with formic acid, 0.4% final concentration. Each protein was incubated with the electrophilic library in pools of five compounds per well. The pool’s composition maximized the difference in mass between fragments in the same well. Incubations were performed with each fragment at 200 μM, for 24 h at 4 °C, to allow the screening of proteins that are not stable for long time periods at higher temperatures. Following incubation, we used intact protein [compound left out] chromatography/mass spectrometry (LC/MS) to identify the fragments and quantify their labeling (Figure 3A). […] There was good agreement between the percent of labeling of NUDT7 by 100 random individual compounds and that obtained in pools of five (R^2=0.78; Figure S6 and Data set 2 in the Supporting Information).

[5] = target: T2, BSA (Bos taurus, UniProt P02769); set-up: Intact protein LC/MS covalent labelling, fragments in pools of five, 200 uM each, 4 °C; settings: 24 h, 4 °C, pool of five; 200 µM; covalent
T2 construct: gene ALB
Protocol: as §1

[6] = target: T3, NUDT7 (Homo sapiens, UniProt P0C024); set-up: Intact protein LC/MS covalent labelling, fragments in pools of five, 200 uM each, 4 °C; settings: 24 h, 4 °C, pool of five; 200 µM; covalent
T3 construct: residues 14-235, E. coli, pNIC28-Bsa4, N-terminal His6 tag removed by TEV, construct 26672 Da
Protocol: as §1

T2 sequence (P02769 whole entry, the tested form may be a part): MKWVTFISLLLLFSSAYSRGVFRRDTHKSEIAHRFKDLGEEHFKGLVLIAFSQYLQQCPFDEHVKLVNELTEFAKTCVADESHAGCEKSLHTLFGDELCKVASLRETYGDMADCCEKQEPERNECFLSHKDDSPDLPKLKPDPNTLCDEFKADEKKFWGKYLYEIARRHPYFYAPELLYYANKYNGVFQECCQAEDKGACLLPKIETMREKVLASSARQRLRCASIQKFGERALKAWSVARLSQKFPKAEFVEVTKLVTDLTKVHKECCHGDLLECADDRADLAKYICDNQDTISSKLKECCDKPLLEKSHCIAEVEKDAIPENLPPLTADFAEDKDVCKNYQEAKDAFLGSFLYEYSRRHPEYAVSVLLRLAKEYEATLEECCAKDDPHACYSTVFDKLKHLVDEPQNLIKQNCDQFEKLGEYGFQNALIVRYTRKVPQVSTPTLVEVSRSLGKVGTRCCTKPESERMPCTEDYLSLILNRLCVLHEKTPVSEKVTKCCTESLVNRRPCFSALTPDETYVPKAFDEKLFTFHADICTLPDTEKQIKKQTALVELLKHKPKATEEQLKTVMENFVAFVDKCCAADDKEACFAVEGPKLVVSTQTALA
T3 sequence (P0C024 14-235): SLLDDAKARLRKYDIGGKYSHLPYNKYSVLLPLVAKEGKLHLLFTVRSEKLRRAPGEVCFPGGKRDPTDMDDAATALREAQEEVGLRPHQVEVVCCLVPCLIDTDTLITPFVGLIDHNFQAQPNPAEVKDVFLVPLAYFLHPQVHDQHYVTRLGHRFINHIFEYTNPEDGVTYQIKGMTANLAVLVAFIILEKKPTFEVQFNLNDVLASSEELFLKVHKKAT
T1 sequence (Q92831 whole entry, the tested form may be a part): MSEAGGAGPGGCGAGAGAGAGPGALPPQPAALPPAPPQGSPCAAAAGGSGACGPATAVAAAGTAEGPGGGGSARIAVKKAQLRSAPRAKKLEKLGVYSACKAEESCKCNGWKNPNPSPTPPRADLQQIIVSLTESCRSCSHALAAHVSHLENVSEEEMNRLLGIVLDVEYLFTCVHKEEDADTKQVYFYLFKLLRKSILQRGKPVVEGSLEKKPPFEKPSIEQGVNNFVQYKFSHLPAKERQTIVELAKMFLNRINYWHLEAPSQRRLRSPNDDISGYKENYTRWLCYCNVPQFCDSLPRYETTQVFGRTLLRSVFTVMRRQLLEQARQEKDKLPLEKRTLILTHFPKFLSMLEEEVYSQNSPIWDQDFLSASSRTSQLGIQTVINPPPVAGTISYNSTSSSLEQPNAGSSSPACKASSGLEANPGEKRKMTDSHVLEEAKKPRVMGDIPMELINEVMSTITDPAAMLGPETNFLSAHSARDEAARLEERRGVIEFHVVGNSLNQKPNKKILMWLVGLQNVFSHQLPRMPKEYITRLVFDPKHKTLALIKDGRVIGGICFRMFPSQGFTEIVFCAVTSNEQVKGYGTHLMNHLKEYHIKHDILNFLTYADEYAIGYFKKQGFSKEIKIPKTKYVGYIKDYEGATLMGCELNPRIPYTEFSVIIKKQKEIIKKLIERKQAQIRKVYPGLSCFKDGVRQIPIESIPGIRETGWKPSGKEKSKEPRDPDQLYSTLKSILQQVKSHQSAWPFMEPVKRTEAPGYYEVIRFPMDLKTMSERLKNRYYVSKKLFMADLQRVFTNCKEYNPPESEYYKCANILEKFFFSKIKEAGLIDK

PCAF [4] | BSA [5] | NUDT7 [6] | SMILES | viability at 48 h, 10 µM [1] [%] | viability at 48 h, 10 µM [2] [%] | viability at 48 h, 10 µM [3] [%]
0 |  |  | N#Cc1ccsc1NC(=O)CCl [PCM-0102768] | 45.9 | 46.1 | 74.6
0 | 0 | 0 | C=CC(=O)N1CCCC(c2nc(C(F)(F)F)cn2C)C1 (stereo not drawn) [PCM-0102633] | 106 | 99.9 | 118
0 | 0 | 0 | C=CC(=O)N1CCn2c(cc3c(Cl)cccc32)C1 [PCM-0102835] | 69.7 | 83.4 | 91.6
0 | 0 | 0 | O=C(CCl)N1CCc2cc([N+](=O)[O-])ccc21 [PCM-0102403] | 50.4 | 21.2 | 51.4
0 | 0 | 0.16 | N#Cc1cnn(-c2ccccc2)c1NC(=O)CCl [PCM-0102225] | 91 | 99 | 81
0 | 0 | 0 | O=C(CCl)NNc1ccccn1 [PCM-0102319] | 94.6 | 106 | 106
0 | 0 | 0.07 | O=C(CCl)Nc1ccc2[nH]c(C(F)(F)F)nc2c1 [PCM-0102151] | 1.3 | 7.4 | 28
0 | 0 | 0 | CC(NC(=O)CCl)C(=O)O (stereo not drawn) [PCM-0102990] | 103 | 102 | 115
0 | 0 | 0 | C=CC(=O)NC1CCN(C(C)=O)Cc2cc(F)ccc21 (stereo not drawn) [PCM-0102635] | 91.8 | 101 | 114
0 | 0 | 0.11 | COc1ccc(C(=O)NNC(=O)CCl)cc1 [PCM-0102115] | 79.4 | 91.7 | 81.5
0 | 0 | 0 | CC1CCN(c2ccc(NC(=O)CCl)cc2)CC1.Cl [PCM-0102235] | 18.9 | 21.9 | 48.3
0 | 0 | 0.29 | Cc1cccc(N2CCN(C(=O)CCl)CC2)c1C [PCM-0102215] | 11.1 | 7.5 | 43.8
0 | 0 | 0 | C=CC(=O)N1CCC(NC(=O)c2cc(C)on2)CC1 [PCM-0102557] | 83.7 | 101 | 101
0 | 0 | 0 | CC(=O)c1sc2nc(C)cc(C)c2c1NC(=O)CCl [PCM-0102108] | 101 | 103 | 99
0 | 0 | 0.22 | O=C(CCl)N1CCc2[nH]c3ccccc3c2C1 [PCM-0102591] | 7.5 | 7.3 | 61.8
0 | 0 | 0.08 | O=C(CCl)Nc1ccc(N2CCCCCC2)cc1 [PCM-0102199] | 4 | 7 | 31.8
0 | 0 | 0 | O=C(CCl)NCc1ccc(Cl)cc1 [PCM-0102668] | 83.7 | 108 | 112
0 | 0 | 0 | Cc1ccc(NC(=O)CCl)c(C)c1 [PCM-0103041] | 49.9 | 75.7 | 70.5

PCAF [4] | BSA [5] | NUDT7 [6] | SMILES | viability at 48 h, 10 µM [1] [%] | viability at 48 h, 10 µM [2] [%] | viability at 48 h, 10 µM [3] [%]
0 | 0.18 | 0 | C=CC(=O)N1CCn2c(cc3cc(Cl)ccc32)C1 [PCM-0102661] | 87.1 | 81.5 | 109
0 | 0 | 0.1 | O=C(CCl)Nc1ccc2c(c1)OC1(CCCC1)O2 [PCM-0102801] | 2.8 | 8.5 | 59.7
0 | 0 | 0 | COc1ccc(NC(=O)NC(=O)CCl)cc1 [PCM-0102268] | 65 | 63.7 | 70.4
0 | 0 | 0 | C=CC(=O)Nc1ccc(C)c(F)c1 [PCM-0102878] | 78.8 | 102 | 97.9
0 | 0.24 | 0 | C=CC(=O)NCc1cnc(C)s1 [PCM-0102587] | 83.2 | 107 | 111
0 | 0 | 0 | Cc1cc(NC(=O)CCl)n(C)n1 [PCM-0102383] | 31.2 | 64.5 | 54.4
0 | 0 | 0.18 | Cc1ccc(NC(=O)CCl)c(Cl)c1 [PCM-0102408] | 38.1 | 35.9 | 78.1
0 | 0 | 0.22 | Cc1cccc([N+](=O)[O-])c1NC(=O)CCl [PCM-0102176] | 77.5 | 85.3 | 71.7
0 | 0 | 0.36 | O=C(CCl)Nc1ccccc1O [PCM-0102907] | 80.8 | 106 | 95.4
0 | 0 | 0 | C=CC(=O)NC1(C#N)CCOC1 (stereo not drawn) [PCM-0103049] | 115 | 99.3 | 95.7
0 | 0 |  | C=CC(=O)NC(C)c1ccc(C(F)(F)F)nc1Cl (stereo not drawn) [PCM-0103053] | 85.5 | 99.6 | 113
0 | 0 | 0 | C=CC(=O)NC(C)(C)c1noc(C(C)(C)C)n1 [PCM-0102724] | 113 | 95.8 | 108
0 | 0 | 0.25 | O=C(CCl)Nc1nc(-c2ccco2)cs1 [PCM-0102979] | 66 | 44 | 89.7
0 | 0 | 0 | Cc1ccc(C(=O)NNC(=O)CCl)cc1 [PCM-0102924] | 268 | 97.6 | 123
0 | 0 | 0 | CC1CCCCN1C(=O)CCl (stereo not drawn) [PCM-0102434] | 71.3 | 89.1 | 82.7
0 | 0 |  | O=C(CCl)Nc1ccc2c(c1)OCCO2 [PCM-0102324] | 8.2 | 35.2 | 63.3
0 | 0 |  | O=C(CCl)N1CC=C(c2c[nH]c3ccccc23)CC1 [PCM-0102631] | 46.3 | 15.3 | 77.7
0 | 0 |  | CN(Cc1c(F)cccc1Cl)C(=O)CCl [PCM-0102184] | 4.9 | 9.3 | 42.2
